Results from patent US6610657B1, “Alkyl peptide amides and applications” (Promega Corporation, priority 1996, dated 2003).
One block for each molecule: values may come before it. *: point of attachment. Stearyl = stearyl group; stearyl = stearyl group; sulfo = O=S(=O)(O)*

How the values were obtained:
[1] = system: PKA in bovine caudal and caput sperm; experiment: PKA activity of bovine caudal and caput sperm after treatment; type: cell-based; details: 50 μM
Description: PKA Activity. PKA activity was assayed as previously described (Carr et al., J. Biol. Chem. 268:20729-20732, 1993) with minor changes. Whole caput or caudal sperm were treated with 2-chloro-2′-deoxyadenosine (50 μM), H-89 (50 μM), or both for 30 min. at 37° C. The sperm were then washed twice in ice cold homogenization buffer supplemented with protease inhibitors, benzamidine (10 mM), leupeptin (4 μg/ml), and N-tosyl-L-phenylalanine chloromethyl ketone (TPCK) (100 μM), and sonicated for one min. Reaction mixtures (20 microliters (μl) total) contained 250 μM Kemptide (i.e., LRRASLG), 250 μM (γ^32P) ATP, 25 mM Na3VO4, 50 mM 3-[N-morpholino] propanesulfonic acid (MOPS) (pH=7.0), 10 mM MgCl2, 0.25 mg/ml BSA and where indicated, 10 μM cAMP. Assays were initiated by addition of labeled ATP, incubated for 2 min at 30° C., and stopped by addition of 30 μl of 1 N HCl. Twenty μl of the reaction was then spotted on phosphocellulose paper followed by three washes in 75 mM phosphoric acid. The papers were then analyzed by Cerenkov counting. All determinations were made in quadruplicate.
In previous reports, initiation or stimulation of sperm motility by CDA was associated with an elevation of cAMP and an increase in PKA activity was assumed (Vijayaraghavan and Hoskins, Biol. Reprod. 34:468-77, 1986). […] Bovine sperm were incubated as described for FIGS. 14 and 15 and then assessed for PKA activity. […]

[2] = system: bovine caudal epididymal sperm; experiment: Bovine sperm motility (CASMA, forward motility index); type: cell-based
Description: (§1) Sperm Preparation. Testes from mature bulls with intact tunica were obtained from a local slaughterhouse and sperm from caput or caudal epididymis were isolated and washed as previously described (Vijayaraghavan et al., Biol. Reprod. 32:489-500, 1985). The sperm were resuspended in buffer A (120 mM NaCl, 10 mM KCl, 10 mM Tris[hydroxymethyl]aminomethane (TRIS), pH 7.4) supplemented with 10 mM glucose and 10 mg/ml bovine serum albumin (BSA) for motility measurements. Monkey semen was obtained by electro-ejaculation and processed by procedures previously reported (Smith et al., Biol. Reprod. 54:719-727, 1996). Human semen samples were obtained from a fertility clinic at the Oregon Health Sciences University.
(§2) Sperm Motility Measurement. Head motility parameters were determined as previously described (Vijayaraghavan et al., Biol. Reprod. 54:709-718, 1996; Stephens et al., Biol. Reprod. 38:577-586, 1988). A 3-4 μL aliquot of sperm suspension (5×10^7/ml) was loaded onto a counting chamber at 37° C. After bulk fluid movement had subsided, six different locations on the slide were recorded. The videotaped segments were analyzed by a computerized image-analysis system (CASMA) as previously described (Vijayaraghavan et al., Biol. Reprod. 54:709-718, 1996; Stephens et al., Biol. Reprod. 38:577-586, 1988). This computer system measured several parameters of head motion, including forward motility. The forward Motility Index (FMI) was used as the measure of motility. FMI is a product of percent motile (%M, percent of sperm moving at velocity greater than 20 mm/sec) and average velocity (Va, the five-point smoothed average of the head positions through analysis of at least twenty frames).

sperm = type: cell-based
Description: In the first such experiment, the vital dyes SYBR-green and rhodamine 123 were added to sperm before and after treatment with s-Ht31 in order to determine whether s-Ht31 affects sperm viability or structural integrity. Only viable, intact cells normally take up such dyes.

RII binding to AKAP 110 = experiment: RII overlay assay on bovine sperm AKAP; details: 20 μM peptide, densitometric scanning, FIG. 6
Text: Western blotting and overlay assays. The overlay procedure is a modified Western blot procedure. Proteins were separated by SDS-polyacrylamide gel electrophoresis (SDS-PAGE) and transferred to a nylon membrane (Immobilon). After treatment with Blotto (Protein Methods, Bollag and Edelstein, eds., Wiley-Liss, New York, 1991) to prevent non-specific binding, radiolabelled RIIα or RIIβ probes were applied (Carr and Scott, Trends Biochem. Sci. 17:246-249, 1992). Recombinant RIIα was produced as previously described (Carr et al., J. Biol. Chem. 266:14188-14192, 1991; Carr et al., J. Biol. Chem. 267:13376-13382, 1992). RIIα and RIIβ were gifts from Dr. John Scott, Oregon Health Sciences University, Portland, Oreg. Two different variations of the overlay assay were used. In the first variation, recombinant RII radiolabeled by incubation with the catalytic subunit of PKA and γ^32P-ATP was used. After separation from free γ^32P-ATP, the ^32P-labeled RII (500,000 CPM/10 ml blotto) was incubated with the blocked blot for four hours followed by washing and autoradiography. […]
RII overlays were performed in the absence (lane 1) or presence of 20 μM Ht31, s-Ht31, or s-Ht31-P (lanes 2, 3 or 4, respectively). Addition of the three peptide species inhibited RII binding to AKAP110 by 100%, 85% and 0%, respectively, as determined by densitometric scanning analysis.

monkey ejaculated sperm = experiment: Monkey sperm motility; type: cell-based, rhesus monkey; details: increasing concentrations in neat semen, 37° C., 5 and 30 min, FIG. 11
Description: as §1
as §2, with “The forward Motility Index (FMI) was used as the measure of motility. FMI is a product of percent motile (%M, percent of sperm moving at velocity greater than 20 mm/sec) and average velocity (Va, the five-point smoothed average of the head positions through analysis of at least twenty frames).” left out

PP-2A = PP-2A (Homo sapiens, UniProt P67775); details: cited from earlier work
alkaline phosphatase = details: cited from earlier work
insulin receptor = details: intact CHO/HIRc cells; cited from earlier work
PP-1 = PP-1 (Homo sapiens, UniProt P62136); details: cited from earlier work
[3] = target: RII, 32P-labeled recombinant regulatory subunit of PKA (isoform not given) used as overlay probe; experiment: RII overlay of bovine sperm blot with 20 µM peptide, densitometric scanning
[4] = target: endogenous RII isoforms of sperm (bands at about 55 kDa); experiment: cell-based or functional assay

PP-2A, sequence (P67775 whole entry): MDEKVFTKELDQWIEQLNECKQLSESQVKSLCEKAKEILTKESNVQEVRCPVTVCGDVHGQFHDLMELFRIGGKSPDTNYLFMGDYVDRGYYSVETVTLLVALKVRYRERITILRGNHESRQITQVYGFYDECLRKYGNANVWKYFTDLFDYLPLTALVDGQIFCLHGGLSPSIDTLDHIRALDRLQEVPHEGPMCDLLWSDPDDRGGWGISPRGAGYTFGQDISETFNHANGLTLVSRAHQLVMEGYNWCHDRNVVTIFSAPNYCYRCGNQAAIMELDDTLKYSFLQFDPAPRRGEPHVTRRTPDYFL
PP-1, sequence (P62136 whole entry, canonical isoform): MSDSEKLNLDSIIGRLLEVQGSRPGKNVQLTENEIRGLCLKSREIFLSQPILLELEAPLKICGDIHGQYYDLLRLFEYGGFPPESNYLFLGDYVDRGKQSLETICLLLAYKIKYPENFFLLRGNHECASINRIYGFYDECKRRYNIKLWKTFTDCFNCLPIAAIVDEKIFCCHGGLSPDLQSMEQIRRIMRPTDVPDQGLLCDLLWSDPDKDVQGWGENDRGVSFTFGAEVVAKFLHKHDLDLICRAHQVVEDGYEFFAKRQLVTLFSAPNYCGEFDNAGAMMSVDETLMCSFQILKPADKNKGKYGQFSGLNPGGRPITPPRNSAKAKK

Molecule: Nc1nc(Cl)nc2c1ncn2[C@H]1C[C@H](O)[C@@H](CO)O1 [CDA, 2-chloro-2′-deoxyadenosine]
Increase of basal PKA activity ([1]; 30 min at 37° C., both caudal and caput sperm): approximately 60%

Molecule: O=S(=O)(NCCNCC=Cc1ccc(Br)cc1)c1cccc2cnccc12 [H-89, N-[2-(p-bromocinnamylamino)ethyl]-5-isoquinoline-sulfonamide]
Effect on sperm motility stimulated by CDA ([2]; 50 μM H-89 added 15 min prior to 50 μM CDA): no effect | inhibition at 50 µM ([2]; Bos taurus, Sperm, 0.25 h, 50 μM, 15 min, FIG. 14, read-out: Inhibition of basal sperm motility): ≤ 50% | Effect on PKA activity of treated sperm ([1]; in the presence or absence of CDA, sperm washed before lysis): strongly inhibited PKA activity

Molecule: C[C@@H]1CC[C@@]2(OC1)O[C@H]1[C@@H](O)[C@H]3[C@@H]4CC[C@H]5C[C@@H](O[C@@H]6O[C@H](CO)[C@H](O[C@@H]7O[C@H](CO)[C@@H](O)[C@H](O[C@@H]8OC[C@@H](O)[C@H](O)[C@H]8O)[C@H]7O[C@@H]7O[C@H](CO)[C@H](O)[C@H](O[C@@H]8O[C@H](CO)[C@@H](O)[C@H](O)[C@H]8O)[C@H]7O)[C@H](O)[C@H]6O)[C@H](O)C[C@]5(C)[C@H]4CC[C@]3(C)[C@H]1[C@@H]2C [digitonin]
Release of BCECF or Fura 2 from loaded sperm (sperm): caused release of these dyes

Molecule: CCCCCCCCCCCCCCCCCC(=O)N[C@@H](CC(=O)O)C(=O)N[C@@H](CC(C)C)C(=O)N[C@H](C(=O)N[C@@H](CCC(=O)O)C(=O)N[C@@H](CCC(=O)O)C(=O)N[C@@H](C)C(=O)N[C@@H](C)C(=O)N[C@@H](CO)C(=O)N[C@@H](CCCNC(=N)N)C(=O)N[C@H](C(=O)N[C@H](C(=O)N[C@@H](CC(=O)O)C(=O)N[C@@H](C)C(=O)N[C@H](C(=O)N[C@H](C(=O)N[C@@H](CCC(=O)O)C(=O)N[C@@H](CCC(N)=O)C(=O)N[C@H](C(=O)N[C@@H](CCCCN)C(=O)N[C@@H](C)C(=O)N[C@@H](C)C(=O)NCC(=O)N[C@@H](C)C(=O)N[C@@H](Cc1ccc(O)cc1)C(=O)O)C(C)C)[C@@H](C)CC)C(C)C)C(C)C)[C@@H](C)CC)[C@@H](C)CC [s-Ht31]
Effect on sperm viability / plasma membrane integrity (uptake of SYBR-green and rhodamine 123) (sperm): did not decrease viability or disrupt the integrity of the sperm plasma membrane | Release of BCECF or Fura 2 from loaded sperm (sperm): did not compromise the integrity of the plasma membrane

Inhibition of RII binding to AKAP110 (RII binding to AKAP 110): 100%
Molecule: DLIEEAASRIVDAVIEQVKAAGAY (listed as Homo sapiens) [Ht31]

Molecule: Stearyl-DLIEEAASRPVDAVPEQVKAAGAY amide (Stearyl-DLIEEAASRPVDAVPEQVKAAGAY-NH2; listed as Homo sapiens) [s-Ht31-P]
Effect on sperm motility ([2]; concentrations up to 20 μM, 5 min): no effect

Molecule: Stearyl-YETLLIETASSLVKNAIQLSIE amide (Stearyl-YETLLIETASSLVKNAIQLSIE-NH2; listed as Homo sapiens) [s-AKAP79]
Effect on motility of monkey-ejaculate sperm (monkey ejaculated sperm): inhibited sperm motility in a concentration- and time-dependent manner

Molecule: TRDIYETDYYRK-amide (Stearyl-TRDIY(sulfo)ETDY(sulfo)Y(sulfo)RK-NH2; not fully specified; printed as TRDIYETDYYRK-amide; listed as Homo sapiens)
Effect on activity of PP-2A (PP-2A): did not have an effect | Effect on activity of alkaline phosphatase (alkaline phosphatase): did not have an effect | Increase in insulin-stimulated receptor autophosphorylation (insulin receptor): 4.5 fold | Effect on activity of PP-1 (PP-1): did not have an effect

percent inhibition of RII binding to AKAP110 [3]: 0%
Molecule: stearyl-DLIEEAASRPVDAVPEQVKAAGAY-NH2 [s-Ht31-P: Stearyl-… amide]

concentration of s-Ht31 needed to produce 50% inhibition of bovine sperm motility, five minutes post-treatment [4]: 1 µM | percent inhibition of RII binding to AKAP110 [3]: 85%
Molecule: Stearyl-DLIEEAASRIVDAVIEQVKAAGAY-NH2 (not fully specified) [s-Ht31: Stearyl-… amide]

percent inhibition of RII binding to AKAP110 [3]: 100%
Molecule: DLIEEAASRIVDAVIEQVKAAGAY [Ht31 (anchor inhibiting peptide, non-stearated)]
